Test results: paper PMC3416781, “Functional Characterizations of Chemosensory Proteins of the Alfalfa Plant Bug Adelphocoris lineolatus Indicate Their Involvement in Host Recognition” (PLoS ONE, 2012)
“Also recorded” adds a separate entry of the source.

Assays:
AlinCSP1 [1] = molecular target: T1, AlinCSP1 (Adelphocoris lineolatus, UniProt J7EJ71); test: Binding of fluorescent probe 1-NPN to AlinCSP1 (titration, Scatchard plot); details: 2 µM protein, 1-NPN 2-16 µM, read-out: dissociation constant of the AlinCSP1/1-NPN complex
Protocol: (§1) Fluorescence binding assays were performed on an F-380 fluorescence spectrophotometer (Tianjin, China) in a 1 cm light path quartz cuvette. The slit width used for excitation and emission was both 10 nm. The fluorescent probe N-phenyl-1-naphthylamine (1-NPN) was dissolved in methanol with a 1 mM stock solution. 1-NPN was excited at 337 nm and emission spectra were recorded between 390 nm and 530 nm.
(§2) All values reported were obtained from three independent measurements.
(§3) For determining binding constants, the intensity values corresponding to the maximum fluorescence emission were plotted against free ligand concentration. Bound ligand was evaluated from the values of fluorescence intensity assuming the protein was 100% active, with a stoichiometry of 1∶1 protein:ligand at saturation. The curves were linearized using Scatchard Plot. Dissociation constants of the competitors were calculated from the corresponding IC50 values, using the equation: KD = [IC50]/(1+[1-NPN]/K1-NPN), where [1-NPN] is the free concentration of 1-NPN and K1-NPN is the dissociation constant of the AlinCSP1-3/1-NPN complex.

AlinCSP2 [2] = molecular target: T2, AlinCSP2 (Adelphocoris lineolatus, UniProt E7BLG5); test: Binding of fluorescent probe 1-NPN to AlinCSP2 (titration, Scatchard plot); details: 2 µM protein, 1-NPN 2-16 µM, read-out: dissociation constant of the AlinCSP2/1-NPN complex
Protocol: as §1, §2, §3

AlinCSP3 [3] = molecular target: T3, AlinCSP3 (Adelphocoris lineolatus, UniProt E7BLG4); test: Binding of fluorescent probe 1-NPN to AlinCSP3 (titration, Scatchard plot); details: 2 µM protein, 1-NPN 2-16 µM, read-out: dissociation constant of the AlinCSP3/1-NPN complex
Protocol: as §1, §2, §3

AlinCSP2 [4] = molecular target: T2, AlinCSP2; test: biochemical; type: binding; details: for Ki: Figure 7B legend
Protocol: as §1, §2
(§4) For determining binding constants, the intensity values corresponding to the maximum fluorescence emission were plotted against free ligand concentration. Bound ligand was evaluated from the values of fluorescence intensity assuming the protein was 100% active, with a stoichiometry of 1∶1 protein:ligand at saturation. The curves were linearized using Scatchard Plot.

AlinCSP1 [5] = molecular target: T1, AlinCSP1; test: biochemical; type: binding; details: for Ki: Figure 7B legend
Protocol: as §1, §2, §4

AlinCSP3 [6] = molecular target: T3, AlinCSP3; test: biochemical; type: binding; details: for Ki: Figure 7B legend
Protocol: as §1, §2, §4

A. lineolatus antennae = test: Electroantennogram (EAG) recordings; set-up: species or system Adelphocoris lineolatus; details: normalized to 2-octanone; for EAG response in words: male and female adult antennae, 10% (v/v) in paraffin oil, good ligand = more than 50% of 2-octanone response; for EAG response, male versus female antennae: Student t-test between sexes
Text: Electrophysiological (EAG) recordings from each sex of adult individuals were made using Ag-AgCl glass pipette electrodes filled with 3 M KCl solution [69], [70]. The insects were anaesthetized by chilling, the antenna was amputated at the base and the tip of the antenna was cut off. The excised antenna was mounted between the electrodes by one teardrop of Spectra R360 electrically conductive gel (Syntech, Netherlands). The base of the antenna was connected to the reference electrode, while the terminal of tip-cut off antenna was connected to the recording electrode. An air stimulus controller CS-55 (Syntech, Netherlands) was used for air and chemical stimulants delivery with a constant flow of 10 ml/second flowed continuously over the antenna through the open end of the glass tube, which was positioned 1 cm from the antenna.
Twenty microliters of tested chemicals (100 µl/ml, 10% (v/v) dilution in paraffin oil except the hexadecanoic acid dissolved in hexane with 100 µg/ml) were applied to filter paper strips (1.5 cm×4 cm, Whatman No.1), and the solvent was allowed to evaporate for 30 sec before the paper strip was inserted into the glass Pasteur pipette cartridge (10 cm long, Fisher Scientific, Pittsburgh, Pennsylvania, USA). The chemicals were tested randomly, stimulus duration time was 0.5 second and an interval of at least 30 seconds was taken between stimulations for antennal recovery. Chemical odorants used for the EAG recordings are the same as used in the binding assays. […] The paraffin oil (Fluka, Buchs, Switzerland) was used to dissolve the chemicals and treated as control compound [71]. Each chemical was tested against six individual male and female antennae, and each antenna was tested three times. The signals were passed through a high impedance amplifier (CS-05 model, Syntech, the Netherlands), EAG responses were initially measured in millivolts (peak height of depolarization) and then converted to normalized responses by the Syntech EAG 2000 program (Syntech, the Netherlands). Response to the solvent control was subtracted from all normalized response and the normalized EAG responses were expressed as a percentage to the reference compound response. All results are presented as mean (±SE) normalized EAG responses. EAG responses between male and female individuals were compared with the Student t-test using SAS software.

AlinCSP1-3 = test: Fluorescence competitive binding assay, statements for the three CSPs together; set-up: species or system Adelphocoris lineolatus
Protocol: as §1, §2, §3

[7] = u.d. = KD not calculated because IC50>50 µM, read-out: KD (µM) AlinCSP2, given as u.d.
[8] = u.d. = KD not calculated because IC50>50 µM, read-out: KD (µM) AlinCSP1, given as u.d.
[9] = u.d. = KD not calculated because IC50>50 µM, read-out: KD (µM) AlinCSP3, given as u.d.
[10] = 1-NPN and protein at 2 µM, 50 mM Tris-HCl pH 7.4, KD calculated from IC50, mean of three measurements, read-out: KD (µM) AlinCSP2
[11] = 1-NPN and protein at 2 µM, 50 mM Tris-HCl pH 7.4, KD calculated from IC50, mean of three measurements, read-out: KD (µM) AlinCSP1
[12] = 1-NPN and protein at 2 µM, 50 mM Tris-HCl pH 7.4, KD calculated from IC50, mean of three measurements, read-out: KD (µM) AlinCSP3

T3 sequence (E7BLG4 entry or part of it): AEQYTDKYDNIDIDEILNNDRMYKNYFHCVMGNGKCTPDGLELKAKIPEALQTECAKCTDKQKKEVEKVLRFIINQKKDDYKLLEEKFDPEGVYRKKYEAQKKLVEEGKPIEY
T1 sequence (J7EJ71 entry or part of it): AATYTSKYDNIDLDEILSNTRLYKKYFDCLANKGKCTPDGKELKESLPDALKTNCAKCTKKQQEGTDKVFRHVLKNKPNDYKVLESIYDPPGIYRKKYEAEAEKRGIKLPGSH
T2 sequence (E7BLG5 entry or part of it): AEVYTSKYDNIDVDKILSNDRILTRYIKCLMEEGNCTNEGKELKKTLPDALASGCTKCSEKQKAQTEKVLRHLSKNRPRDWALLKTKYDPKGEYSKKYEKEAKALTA

Compound	Ki (AlinCSP2 [4])	Kd (AlinCSP2 [4]; [7])	Kd (AlinCSP1 [5]; [8])	Kd (AlinCSP3 [6]; [9])	Kd (AlinCSP2 [4]; [10])	Kd (AlinCSP1 [5]; [11])	Kd (AlinCSP3 [6]; [12])	EAG response in words (A. lineolatus antennae)	EAG response, male versus female antennae (A. lineolatus antennae)	also measured
c1ccc(Nc2cccc3ccccc23)cc1 [1-NPN, N-phenyl-1-naphthylamine]										Kd (AlinCSP1 [1]): 1.83 µM; Kd (AlinCSP2 [2]): 1.92 µM; Kd (AlinCSP3 [3]): 4.45 µM
CCCC(=O)OCC [Ethyl butyrate]	92.5 µM	> 50 µM	> 50 µM	> 50 µM				elicited significant antennal responses from both male and female; also recorded: elicited high EAG responses		Ki (AlinCSP1 [5]): 95.2 µM; Ki (AlinCSP3 [6]): 101 µM; binding to the three CSPs in words (AlinCSP1-3): failed to bind with any of the three CSPs
CCC/C=C/COC(=O)CCC [(E)-2-Hexenyl butyrate]	113 µM	> 50 µM	> 50 µM	> 50 µM				elicited significant antennal responses from both male and female; also recorded: elicited high EAG responses		Ki (AlinCSP3 [6]): 148 µM; binding to the three CSPs in words (AlinCSP1-3): failed to bind with any of the three CSPs
C=CC(=C)CCC=C(C)C [Myrcene]					13 ± 1.72 µM	5.42 ± 0.93 µM	10.7 ± 1.64 µM	failed to elicit high EAG response		
CCCCCC(C)=O [2-Heptanone]		> 50 µM				42.9 ± 2.89 µM	41.2 ± 2.56 µM		significantly higher EAG responses from female antennae than from male antennae	

Second part, led by results:

Ki (AlinCSP2 [4])	Kd (AlinCSP2 [4]; [7])	Kd (AlinCSP1 [5]; [8])	Kd (AlinCSP3 [6]; [9])	Kd (AlinCSP2 [4]; [10])	Kd (AlinCSP1 [5]; [11])	Kd (AlinCSP3 [6]; [12])	Compound	EAG response in words (A. lineolatus antennae)	EAG response, male versus female antennae (A. lineolatus antennae)	also measured
137 µM	> 50 µM	> 50 µM	> 50 µM				CCCCCCCCCCCCCCCC(=O)O [hexadecanoic acid]	did not elicit notably EAG responses		Ki (AlinCSP1 [5]): 118 µM; IC50 (AlinCSP1-3; displacement of 1-NPN, all three CSPs): > 50 µM
				46.4 ± 0.82 µM	44.6 ± 0.75 µM	47.2 ± 1.18 µM	CCCCCCCCCC [decane]		significantly higher EAG responses from female antennae than from male antennae	
			> 50 µM	39.6 ± 2.36 µM	38.4 ± 1.54 µM		CCCCCCCCCCC [Undecane]		significantly higher EAG responses from male antennae than from female antennae	
